According to ChEMBL document CHEMBL1201862, “PubChem BioAssay data set” (2004):
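Results reflect a 48-hour exposure of cells in 96-well plates to compound at five concentrations. At the GI50, growth is halved.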 Active and inactive are the calls of the source. Rule as the data show it: active = GI50 up to about 1.1 µM and inactive = higher.

What was measured:
Experiment in all cases: NCI tumour cell line growth inhibition, 48 h
ACHN = tested on: ACHN
EKVX = tested on: EKVX
HCT-15 = tested on: HCT-15
HL-60 = tested on: HL-60
HT-29 = tested on: HT-29
K562 = tested on: K562
KM12 = tested on: KM12
MDA-N = tested on: MDA-N
MOLT-4 = tested on: MOLT-4
NCI-H226 = tested on: NCI-H226
OVCAR-4 = tested on: OVCAR-4
OVCAR-5 = tested on: OVCAR-5
OVCAR-8 = tested on: OVCAR-8
PC-3 = tested on: PC-3
RPMI-8226 = tested on: RPMI-8226
SF-268 = tested on: SF-268
SK-MEL-28 = tested on: SK-MEL-28
SK-MEL-5 = tested on: SK-MEL-5
SR = tested on: SR
UACC-62 = tested on: UACC-62

Measured: GI50

CSc1nc2ccccc2c(=O)n1-c1cccc(C)c1
36.2 µM: HCT-15
inactive: ACHN 97.9 µM | EKVX 73.6 µM | HL-60 2.58 µM | HT-29 38.6 µM | K562 33 µM | KM12 45.3 µM | MDA-N 23.6 µM | MOLT-4 28.8 µM | NCI-H226 > 100 µM | OVCAR-4 86.7 µM | OVCAR-5 > 100 µM | OVCAR-8 > 100 µM | PC-3 46.6 µM | RPMI-8226 39.4 µM | SF-268 99.1 µM | SK-MEL-28 > 100 µM | SK-MEL-5 21.9 µM | SR 15.7 µM | UACC-62 71 µM

COC(=O)C(Cc1c[nH]c2ccccc12)NC1=Nc2ccncc2S(=O)(=O)N1c1cccc(OC(C)C)c1 (centres undefined)
43.2 µM: HCT-15
inactive: ACHN 41.1 µM | EKVX 36.6 µM | HL-60 22.4 µM | HT-29 34.2 µM | K562 41.8 µM | KM12 63.2 µM | MDA-N 67.3 µM | MOLT-4 8.91 µM | NCI-H226 > 100 µM | OVCAR-4 37.2 µM | OVCAR-5 > 100 µM | OVCAR-8 30.3 µM | PC-3 39.9 µM | RPMI-8226 15.5 µM | SF-268 41.9 µM | SK-MEL-28 > 100 µM | SK-MEL-5 25.5 µM | SR 21.8 µM | UACC-62 25.9 µM

O=C1C2SC34c5c2c2ccccc2n5CCC3CCCN14 (centres undefined)
inactive: ACHN > 100 µM | EKVX > 100 µM | HL-60 > 100 µM | HT-29 > 100 µM | K562 > 100 µM | KM12 > 100 µM | MDA-N > 100 µM | MOLT-4 > 100 µM | NCI-H226 > 100 µM | OVCAR-4 37.5 µM | OVCAR-5 > 100 µM | OVCAR-8 83.8 µM | PC-3 54.8 µM | RPMI-8226 > 100 µM | SF-268 39.4 µM | SK-MEL-28 > 100 µM | SK-MEL-5 > 100 µM | SR > 100 µM | UACC-62 > 100 µM
> 100 µM: HCT-15

N=C1/C(=C/c2ccco2)C(=O)N=C2SC=NN12
> 100 µM: HCT-15
inactive: ACHN > 100 µM | EKVX > 100 µM | HL-60 > 100 µM | HT-29 > 100 µM | K562 > 100 µM | KM12 > 100 µM | MDA-N > 100 µM | MOLT-4 > 100 µM | NCI-H226 > 100 µM | OVCAR-4 > 100 µM | OVCAR-5 > 100 µM | OVCAR-8 > 100 µM | PC-3 > 100 µM | RPMI-8226 > 100 µM | SF-268 > 100 µM | SK-MEL-28 > 100 µM | SK-MEL-5 > 100 µM | SR > 100 µM | UACC-62 > 100 µM

O=C(NC(CS)C(=O)O)c1cccc2c(=O)c3ccccc3[nH]c12 (centres undefined)
> 100 µM: HCT-15
inactive: ACHN > 100 µM | EKVX > 100 µM | HL-60 > 100 µM | HT-29 83.4 µM | K562 > 100 µM | KM12 > 100 µM | MDA-N > 100 µM | MOLT-4 > 100 µM | NCI-H226 > 100 µM | OVCAR-4 > 100 µM | OVCAR-5 > 100 µM | OVCAR-8 > 100 µM | PC-3 > 100 µM | RPMI-8226 > 100 µM | SF-268 > 100 µM | SK-MEL-28 > 100 µM | SK-MEL-5 > 100 µM | SR > 100 µM | UACC-62 > 100 µM

Nc1cccc2cc(Cl)cnc12
inactive: ACHN > 100 µM | EKVX > 100 µM | HL-60 22.8 µM | HT-29 > 100 µM | K562 > 100 µM | KM12 > 100 µM | MDA-N > 100 µM | MOLT-4 37.2 µM | NCI-H226 > 100 µM | OVCAR-4 > 100 µM | OVCAR-5 > 100 µM | OVCAR-8 > 100 µM | PC-3 97.1 µM | RPMI-8226 > 100 µM | SF-268 > 100 µM | SK-MEL-28 > 100 µM | SK-MEL-5 > 100 µM | SR > 100 µM | UACC-62 56.8 µM
> 100 µM: HCT-15

NC1(C(=O)OCc2ccccc2)CCCC1
active: HL-60 0.21 µM
22.9 µM: HCT-15
inactive: ACHN 15.2 µM | EKVX 24.5 µM | HT-29 37.8 µM | K562 14.8 µM | KM12 26 µM | MDA-N 20.1 µM | MOLT-4 11.8 µM | NCI-H226 30.1 µM | OVCAR-4 15.1 µM | OVCAR-5 28.4 µM | OVCAR-8 12.9 µM | PC-3 27.2 µM | RPMI-8226 14.2 µM | SF-268 15.1 µM | SK-MEL-28 22.6 µM | SK-MEL-5 16.6 µM | SR 33.5 µM | UACC-62 15.9 µM

COC(=O)[C@@H]1[C@H](OC(C)=O)CCC2[C@@]3(C[C@@H](c4ccoc4)O[C@@H]3OC)[C@H](C)CC[C@]21C(=O)OC (some centres undefined)
> 25 µM: HCT-15
inactive: ACHN > 25 µM | EKVX > 25 µM | HL-60 19 µM | HT-29 > 25 µM | K562 > 25 µM | KM12 > 25 µM | MDA-N > 25 µM | MOLT-4 > 25 µM | NCI-H226 > 25 µM | OVCAR-4 > 25 µM | OVCAR-5 > 25 µM | OVCAR-8 > 25 µM | PC-3 > 25 µM | RPMI-8226 > 25 µM | SF-268 > 25 µM | SK-MEL-5 > 25 µM | SR > 25 µM | UACC-62 > 25 µM

NS(=O)(=O)c1ccc(NC(=O)Nc2ccccc2F)cc1
inactive: ACHN > 100 µM | EKVX > 100 µM | HL-60 > 100 µM | HT-29 76 µM | K562 > 100 µM | KM12 > 100 µM | MDA-N > 100 µM | MOLT-4 > 100 µM | NCI-H226 > 100 µM | OVCAR-4 > 100 µM | OVCAR-5 > 100 µM | OVCAR-8 > 100 µM | PC-3 > 100 µM | RPMI-8226 > 100 µM | SF-268 > 100 µM | SK-MEL-28 > 100 µM | SK-MEL-5 > 100 µM | SR > 100 µM | UACC-62 72.3 µM
> 100 µM: HCT-15

CC(=O)Oc1ccc2[nH]c3c(C)c4cccc-4ccc3c2c1
inactive: ACHN 1.79 µM | EKVX 2.2 µM | HL-60 2.72 µM | HT-29 2.02 µM | K562 3.79 µM | KM12 2.44 µM | MDA-N 2.36 µM | MOLT-4 3.13 µM | NCI-H226 1.38 µM | OVCAR-4 1.84 µM | OVCAR-5 2.02 µM | OVCAR-8 2.1 µM | PC-3 1.87 µM | RPMI-8226 3.03 µM | SF-268 2.02 µM | SK-MEL-28 2.31 µM | SK-MEL-5 1.83 µM | SR 4.59 µM | UACC-62 1.81 µM
2.24 µM: HCT-15

Cc1ccnc(NS(=O)(=O)c2ccc(N=[N+]=[N-])cc2)n1
inactive: ACHN > 100 µM | EKVX > 100 µM | HL-60 > 46.9 µM | HT-29 > 100 µM | KM12 > 100 µM | MDA-N > 100 µM | NCI-H226 > 100 µM | OVCAR-4 > 100 µM | OVCAR-5 > 100 µM | OVCAR-8 > 100 µM | PC-3 > 100 µM | RPMI-8226 > 100 µM | SF-268 > 100 µM | SK-MEL-28 > 100 µM | SK-MEL-5 > 100 µM | SR 1.34 µM | UACC-62 > 100 µM
> 100 µM: HCT-15

Cc1cc(Cl)ccc1C(=O)c1ccc2ccccc2c1C(=O)O
inactive: ACHN > 100 µM | HL-60 > 100 µM | HT-29 > 100 µM | K562 > 100 µM | KM12 > 100 µM | MDA-N > 100 µM | MOLT-4 > 100 µM | NCI-H226 > 100 µM | OVCAR-4 > 100 µM | OVCAR-5 > 100 µM | OVCAR-8 > 100 µM | PC-3 > 100 µM | RPMI-8226 > 100 µM | SF-268 > 100 µM | SK-MEL-28 > 100 µM | SK-MEL-5 > 100 µM | SR > 100 µM | UACC-62 > 100 µM
> 100 µM: HCT-15

COc1ccc2c(c1)[C@@]13CCN4CC5=CCO[C@H]6CC(=O)N2[C@H]1[C@H]6[C@H]5C[C@H]43
active: NCI-H226 0.178 µM
inactive: ACHN > 100 µM | EKVX 44.4 µM | HL-60 18.1 µM | HT-29 37.2 µM | KM12 > 100 µM | MDA-N > 100 µM | MOLT-4 18.6 µM | OVCAR-4 > 100 µM | OVCAR-5 > 100 µM | OVCAR-8 59.2 µM | PC-3 > 100 µM | RPMI-8226 > 100 µM | SF-268 > 100 µM | SK-MEL-28 80.5 µM | SK-MEL-5 > 100 µM | SR 27.5 µM | UACC-62 > 100 µM
> 100 µM: HCT-15

O=C(Nc1ccc(Br)cc1)c1c(-c2ccccc2)c2ccc(O)cc2oc1=O
inactive: ACHN > 10 µM | EKVX > 10 µM | HL-60 > 10 µM | HT-29 > 10 µM | K562 > 10 µM | KM12 > 10 µM | MDA-N > 10 µM | MOLT-4 > 10 µM | NCI-H226 > 10 µM | OVCAR-4 > 10 µM | OVCAR-5 > 10 µM | OVCAR-8 > 10 µM | PC-3 > 10 µM | RPMI-8226 > 10 µM | SF-268 > 10 µM | SK-MEL-28 > 10 µM | SK-MEL-5 > 10 µM | SR > 10 µM
> 10 µM: HCT-15
